Key:
[1] = tested on: engorged adult female cattle ticks (Boophilus microplus); assay: Boophilus microplus injection test (BOOPMI inj); format: in vivo; conditions: assessed after 7 days
Procedure: Boophilus microplus Injection Test (BOOPMI inj) Solvent: dimethyl sulphoxide To produce a suitable active compound formulation, 10 mg of active compound are mixed with 0.5 ml of solvent and the concentrate is diluted with solvent to the desired concentration. 1 μl of the active compound solution is injected into the abdomen of 5 engorged adult female cattle ticks (Boophilus microplus). The animals are transferred into dishes and kept in a climate-controlled room. The efficacy is assessed after 7 days by laying of fertile eggs. Eggs which are not visibly fertile are stored in a climate-controlled cabinet until the larvae hatch after about 42 days. An efficacy of 100% means that none of the ticks has laid any fertile eggs; 0% means that all the eggs are fertile.

[2] = tested on: adult cat fleas (Ctenocephalides felis); assay: Ctenocephalides felis oral test (CTECFE); format: in vivo; conditions: 100 ppm, oral in cattle blood, after 2 days
Procedure: Ctenocephalides felis-Oral Test ([…]) Solvent: dimethyl sulphoxide To produce a suitable active compound formulation, 10 mg of active compound are mixed with 0.5 ml of dimethyl sulphoxide. Dilution with citrated cattle blood gives the desired concentration. About 20 unfed adult cat fleas (Ctenocephalides felis) are placed into a chamber which is closed at the top and bottom with gauze. A metal cylinder whose bottom end is closed with parafilm is placed onto the chamber. The cylinder contains the blood/active compound preparation, which can be imbibed by the fleas through the parafilm membrane. After 2 days, the kill in % is determined 100% means that all of the fleas have been killed; 0% means that none of the fleas have been killed.

[3] = tested on: L1 larvae of the Australian sheep blowfly (Lucilia cuprina); assay: Lucilia cuprina test (LUCICU); format: in vivo; conditions: 100 ppm, after 2 days
Procedure: Lucilia cuprina Test (LUCICU) Solvent: dimethyl sulphoxide To produce a suitable active compound formulation, 10 mg of active compound are mixed with 0.5 ml of dimethyl sulphoxide, and the concentrate is diluted with water to the desired concentration. About 20 L1 larvae of the Australian sheep blowfly (Lucilia cuprina) are transferred into a test vessel containing minced horsemeat and the active compound preparation of the desired concentration. After 2 days, the kill in % is determined 100% means that all the larvae have been killed; 0% means that none of the larvae have been killed.

[4] = tested on: adult houseflies (Musca domestica); assay: Musca domestica test (MUSCDO); format: in vivo; conditions: 100 ppm, after 2 days
Procedure: Musca domestica Test (MUSCDO) Solvent: dimethyl sulphoxide To produce a suitable active compound formulation, 10 mg of active compound are mixed with 0.5 ml of dimethyl sulphoxide, and the concentrate is diluted with water to the desired concentration. Vessels containing a sponge treated with sugar solution and the active compound preparation of the desired concentration are populated with 10 adult houseflies (Musca domestica). After 2 days, the kill in % is determined. 100% means that all of the flies have been killed; 0% means that none of the flies have been killed.

[5] = tested on: larvae of the mustard beetle (Phaedon cochleariae); assay: Phaedon cochleariae spray test (PHAECO); format: in vivo; conditions: 100 g/ha, after 7 days
Procedure: Phaedon cochleariae—Spray Test (PHAECO)
(§1) Solvent: 78.0 parts by weight of acetone • • 1.5 parts by weight of dimethylformamide
(§2) Emulsifier: alkylaryl polyglycol ether
(§3) To produce a suitable active compound formulation, 1 part by weight of active compound is dissolved using the specified parts by weight of solvent and made up with water containing an emulsifier concentration of 1000 ppm until the desired concentration is attained. To produce further test concentrations, the preparation is diluted with emulsifier-containing water.
After 7 days, the efficacy in % is determined. 100% means that all the beetle larvae have been killed; 0% means that no beetle larvae have been killed.

[6] = tested on: caterpillars of the armyworm (Spodoptera frugiperda); assay: Spodoptera frugiperda spray test (SPODFR); format: in vivo; conditions: for efficacy: 100 g/ha, spray, after 7 days; for % efficacy: SPODFR, 7 dat
Procedure: Spodoptera frugiperda—Spray Test (SPODFR) Solvent: 78.0 parts by weight of acetone • • 1.5 parts by weight of dimethylformamide Emulsifier: alkylaryl polyglycol ether To produce a suitable active compound formulation, 1 part by weight of active compound is dissolved using the specified parts by weight of solvent and made up with water containing an emulsifier concentration of 1000 ppm until the desired concentration is attained. To produce further test concentrations, the preparation is diluted with emulsifier-containing water. Leaf discs of maize (Zea mays) are sprayed with an active compound formulation of the desired concentration and, after drying, populated with caterpillars of the armyworm (Spodoptera frugiperda). After 7 days, the efficacy in % is determined 100% means that all the caterpillars have been killed; 0% means that no caterpillars have been killed. Spodoptera frugiperda—Spray Test (SPODFR) Solvent: 78.0 parts by weight of acetone • • 1.5 parts by weight of dimethylformamide Emulsifier: alkylaryl polyglycol ether To produce a suitable active compound formulation, 1 part by weight of active compound is dissolved using the specified parts by weight of solvent and made up with water containing an emulsifier concentration of 1000 ppm until the desired concentration is attained. To produce further test concentrations, the preparation is diluted with emulsifier-containing water. Leaf discs of maize (Zea mays) are sprayed with an active compound formulation of the desired concentration and, after drying, populated with caterpillars of the armyworm (Spodoptera frugiperda). After the desired period of time, the efficacy in % is determined. 100% means that all the caterpillars have been killed; 0% means that no caterpillars have been killed.

[7] = tested on: greenhouse red spider mite (Tetranychus urticae); assay: Tetranychus urticae spray test, OP-resistant (TETRUR); format: in vivo; conditions: for efficacy: 100 g/ha, spray, after 6 days; for % efficacy: TETRUR, 6 dat
Procedure: Tetranychus urticae—Spray Test, OP-Resistant (TETRUR)
as §1, §2, §3
Discs of bean leaves (Phaseolus vulgaris) infested by all stages of the greenhouse red spider mite (Tetranychus urticae) are sprayed with an active compound formulation of the desired concentration.
After 6 days, the efficacy in % is determined 100% means that all the spider mites have been killed; 0% means that none of the spider mites have been killed.
Tetranychus urticae—Spray Test; OP-Resistant (TETRUR)
After the desired period of time, the efficacy in % is determined 100% means that all the spider mites have been killed; 0% means that none of the spider mites have been killed.

[8] = log P by HPLC (EEC directive 79/831 Annex V.A8); format: physicochemical; conditions: HPLC, reversed-phase column (C18), 43° C., acidic range pH 2.7
Procedure: a) The determination of the M^+ by LC-MS in the acidic range is effected at pH 2.7, acetonitrile (contains 0.1% formic acid) and water as eluents; linear gradient from 10% acetonitrile to 95% acetonitrile, instrument: Agilent 1100 LC system, Agilent MSD system, HTS PAL. The log P values reported in the tables and Preparation Examples above were determined in accordance with EEC directive 79/831 Annex V.A8 by HPLC (High Performance Liquid Chromatography) using a reversed-phase column (C18). Temperature 43° C. The calibration is effected with unbranched alkan-2-ones (having 3 to 16 carbon atoms), for which the logP values are known.

[9] = tested on: L2 larvae of the banded cucumber beetle (Diabrotica balteata); assay: Diabrotica balteata drench test (DIABBA); format: in vivo; conditions: 8 dat
Procedure: Diabrotica balteata—Drench Test (DIABBA) Solvent: 7 parts by weight of dimethylformamide Emulsifier: 2 parts by weight of alkylaryl polyglycol ether To produce a suitable active compound formulation, 1 part by weight of active compound is mixed with the specified amounts of solvent and emulsifier, and the concentrate is diluted with water to the desired concentration, it being necessary to include the volume of soil which is drenched in the calculation. It should be ensured that a concentration of 40 ppm of emulsifier in the soil is not exceeded. To produce further test concentrations, water is used for dilution. […] After one day, 25 L2 larvae of the banded cucumber beetle (Diabrotica balteata) are added. After 8 days, the efficacy in % is determined 100% means that all 5 plants have germinated and grown; 0% means that none of the plants has emerged.

Row | Structure (SMILES) | efficacy (laying of fertile eggs) [1] [%] | efficacy (kill in %) [2] [%] | efficacy (kill in %) [3] [%] | efficacy (kill in %) [4] [%] | efficacy [5] [%] | efficacy [6] [%] | % efficacy ([6]; 0.8 g/ha) [%] | % efficacy ([6]; 4 g/ha) [%] | efficacy [7] [%] | log P [8] | % efficacy ([7]; 4 g/ha) [%] | % efficacy ([7]; 20 g/ha) [%] | % efficacy ([9]; 4 ppm) [%] | % efficacy ([9]; 20 ppm) [%]
1 | CCn1c(C(=O)NC(c2ccc(F)c(C(F)(F)F)c2)C(F)(F)F)cc2cc(C(=O)NC3(C(N)=S)CC3)c(Cl)cc21 (centres unmarked) [I-03] | 100 | 100 | 100 | 100 | 100 | 100 | 100 | 100 | 90 | 3.70 | – | – | – | –
2 | CCn1c(C(=O)NC(c2ccc(F)c(Cl)c2)C(F)(F)F)cc2cc(C(=O)NC3(C(N)=S)CC3)c(Cl)cc21 (centres unmarked) [I-04] | 100 | 100 | 100 | 100 | 100 | 100 | 100 | 100 | 100 | 3.57 | – | – | – | –
3 | CCn1c(C(=O)NC(c2cc(Cl)c(Cl)c(Cl)c2)C(F)(F)F)cc2cc(C(=O)NC3(C(N)=S)CC3)c(Cl)cc21 (centres unmarked) [I-05] | 100 | 100 | 100 | 100 | 100 | 100 | – | – | 90 | 4.33 | – | – | – | –
4 | CCn1c(C(=O)NC(c2ccc(Cl)c(C(F)(F)F)c2)C(F)(F)F)cc2cc(C(=O)NC3(C(N)=S)CC3)c(Cl)cc21 (centres unmarked) [I-07] | 100 | 100 | 100 | 100 | 100 | 100 | 67 | 100 | 100 | 3.96 | – | – | – | –
5 | CCn1c(C(=O)NC(c2cc(F)c(Cl)c(Cl)c2)C(F)(F)F)cc2cc(C(=O)NC3(C(N)=S)CC3)c(Cl)cc21 (centres unmarked) [I-09] | 100 | 100 | 100 | 100 | 100 | 100 | – | – | 100 | 4.02 | – | – | – | –
6 | CCn1c(C(=O)NC(c2cc(F)cc(C(F)(F)F)c2)C(F)(F)F)cc2cc(C(=O)NC3(C(N)=S)CC3)c(Cl)cc21 (centres unmarked) [I-10] | 100 | 100 | 100 | 100 | 100 | 100 | 100 | 100 | 100 | 3.81 | – | – | – | –
7 | CCn1c(C(=O)NC(c2ccc(Cl)c(C(F)(F)F)c2)C(F)(F)F)cc2cc(C(=O)NC3(C(N)=S)CC3)c(C)cc21 (centres unmarked) [I-13] | 100 | 100 | 100 | 100 | 100 | 100 | – | – | 100 | 3.89 | – | – | – | –
8 | CCn1c(C(=O)NC(c2cc(Cl)cc(C(F)(F)F)c2)C(F)(F)F)cc2cc(C(=O)NC3(C(N)=S)CC3)c(Cl)cc21 (centres unmarked) [I-22] | 100 | 100 | 100 | 100 | 100 | 100 | 100 | 100 | 100 | 4.11 | 100 | 100 | 50 | 100
9 | CCn1c(C(=O)NC(c2cc(Cl)cc(Cl)c2)C(F)F)cc2cc(C(=O)NC3(C(N)=S)CC3)c(Cl)cc21 (centres unmarked) [I-24] | 100 | 100 | 100 | 80 | 100 | 100 | – | – | 100 | 3.65 | – | – | – | –
10 | CCn1c(C(=O)NC(c2cc(Cl)c(F)c(F)c2F)C(F)(F)F)cc2cc(C(=O)NC3(C(N)=S)CC3)c(Cl)cc21 (centres unmarked) [I-26] | 100 | 100 | 100 | 100 | 100 | 100 | – | – | 100 | 3.99 | – | – | – | –
11 | CCn1c(C(=O)NC(c2cc(F)c(Cl)c(Cl)c2F)C(F)(F)F)cc2cc(C(=O)NC3(C(N)=S)CC3)c(Cl)cc21 (centres unmarked) [I-27] | 100 | 100 | 100 | 100 | 100 | 100 | – | – | 100 | 4.28 | – | – | – | –
12 | CCn1c(C(=O)NC(c2cc(F)c(Cl)c(F)c2F)C(F)(F)F)cc2cc(C(=O)NC3(C(N)=S)CC3)c(Cl)cc21 (centres unmarked) [I-31] | 100 | 100 | 100 | 100 | 100 | 100 | – | – | 100 | 4.02 | – | – | – | –

Reference: patent US9802895B2, “Indole and benzimidazolecarboxamides as insecticides and acaricides” (BAYER CROPSCIENCE AKTIENGESELLSCHAFT, priority 2014, dated 2017)
